Among the data in US20080085333A1, “Composition Comprising Extract of Anemarrhena Asphodeloides and Aralia Elata,and Use Thereof” (MEDVILL CO., LTD., priority 2004, published 2008) are IC50 and MIC values, retold here.

The subject of experiment [1] is PGE2 production in mouse macrophage cell line Raw264.7. The experiment is described as follows: Inhibition of LPS-induced PGE2 production in macrophages (ELISA). It counts as cell-based. The note with it: Raw264.7, extract 1 hour before LPS, LPS 16 hours, read-out: IC50 for inhibition of PEG2 production. The source says:
The effect of the inventive water or organic solvent extract of Anemarrhena asphodeloides and Aralia elata on the production of PGE2 (prostaglandin E2) in mouse macrophages was examined to measure a concentration at which a 50% inhibitory effect is shown. The PGE2 is a substance synthesized by a COX-2 enzyme in macrophages permeated skin when infected with foreign substances or germs, and the degree of inflammation and the secreted amount of PGE2 are closely connected with each other. Namely, as inflammation becomes more severe, the secretion of PGE2 increases.
Meanwhile, when mouse macrophage cell line Raw264.7 (obtained from Korean Cell Line Bank) is cultured in RPMI medium while it is treated with LPS (lipopolysaccharide) for 16 hours, the production of PGE2 will increase. Thus, 1 hour before the macrophage cell line was treated with LPS, the macrophage cell line was treated with each of the water extract of Anemarrhena asphodeloides or water extract of Aralia elata prepared in Example 1, the water extract of Anemarrhena asphodeloides and Aralia elata prepared in Example 2 and the ethanol extract of Anemarrhena asphodeloides and Aralia elata prepared in Example 3, at varying concentrations of 5 mg/ml, 1 mg/ml, 500 μg/ml, 100 μg/ml, 50 μg/ml and 10 μg/ml, and then measured for the amount of PEG2 produced. […]

Experiment [2] concerns Propionibacterium acnes (KCTC 3314). The experiment is described as follows: Minimum inhibitory concentration in BHI broth, anaerobic culture, O.D. 660 nm. The note with it: 37° C., 48-72 hours. The experiment is classed as cell-based. Here is the method:
To measure the antibacterial effect of the inventive extract against Propionibacterium acnes, […] of BHI (brain heart infusion) broth was inoculated with a culture of Propionibacterium acnes (KCTC 3314) at a concentration of 1% (v/v). Then, the inoculated broth was treated with each of the water extract of Anemarrhena asphodeloides or water extract of Aralia elata prepared in Example 1, the water extract of Anemarrhena asphodeloides and Aralia elata prepared in Example 2 and the ethanol extract of Anemarrhena asphodeloides and Aralia elata prepared in Example 3 at varying concentrations of 0.1%, 1%, 5%, 10% and 20%. A negative control group was treated with physiological saline. […] As positive control groups, erythromycin and triclosan, which are known to have antiacne effect, were used.

In brackets after ≈: the same amount, converted by molar mass.

The term IC50 denotes the point on the concentration scale where inhibition reaches its midpoint.

For `CC(=O)Oc1ccccc1C(=O)O` [aspirin], the IC50 in experiment [1] turned out to be 48 µg/mL (≈ 266 µM).
As for `CC[C@H]1OC(=O)[C@H](C)[C@@H](O[C@H]2C[C@@](C)(OC)[C@@H](O)[C@H](C)O2)[C@H](C)[C@@H](O[C@@H]2O[C@H](C)C[C@H](N(C)C)[C@H]2O)[C@](C)(O)C[C@@H](C)C(=O)[C@H](C)[C@@H](O)[C@]1(C)O` [erythromycin], the MIC in experiment [2] was 0.0005 ppm, v/v.
Still for that read-out and setting: then `Oc1cc(Cl)ccc1Oc1ccc(Cl)cc1Cl` [triclosan], with 0.001 ppm, v/v.
